According to PubChem BioAssay (NCI):
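Where inhibition never reached the appropriate level, the endpoint shown equals the highest concentration tested. Otherwise, values were interpolated linearly from a five-concentration, 48-hour dose response in 96-well plates. TGI: total growth inhibition.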

Legend:
Test in all cases: NCI tumour cell line growth inhibition, 48 h
[1] = tested on: COLO 205 colon
[2] = tested on: DU-145 prostate
[3] = tested on: HL-60(TB) leukemia
[4] = tested on: MALME-3M melanoma
[5] = tested on: NCI-H522 lung
[6] = tested on: OVCAR-8 ovarian
[7] = tested on: PC-3 prostate
[8] = tested on: LOX IMVI melanoma
[9] = tested on: NCI-H226 lung
[10] = tested on: SK-MEL-28 melanoma

Row | SMILES | TGI [1] [µM] | TGI [2] [µM] | TGI [3] [µM] | TGI [4] [µM] | TGI [5] [µM] | TGI [6] [µM] | TGI [7] [µM] | TGI [8] [µM] | TGI [9] [µM] | TGI [10] [µM]
1 | CN1C2=Nc3n(c4ccccc4[n+]3C)CN2c2ccccc21 | 41.9 | > 100 | > 100 | 18 | 65.4 | > 100 | > 100 | – | – | –
2 | CCOC(=O)c1csc(NC(=O)CCN2CCN(C)CC2)n1 | > 100 | > 100 | > 100 | – | – | > 100 | > 100 | > 100 | > 100 | > 100
3 | CSc1nc(Cl)c2c(n1)Sc1nc3ccccc3n1C2O (stereo not given) | > 21.6 | 41.9 | – | > 67.3 | 7.28 | > 29.5 | > 100 | 3.9 | 95 | > 100
4 | CCCn1cc2c3c(cccc31)C1C=C(C)CN(C)C1C2 (stereo not given) | 33.3 | – | 5.56 | 55.5 | 57.1 | 66.5 | – | 39.8 | 40.9 | 49.9
5 | c1cncc(CSc2nc3ccccc3nc2-c2cccs2)c1 | > 100 | – | 47.9 | > 100 | > 100 | > 100 | – | > 100 | > 100 | > 100
6 | CC(C)(C)c1ccnc(N=C2N=C(Nc3cc(C(C)(C)C)ccn3)c3ccccc32)c1 | > 100 | – | > 100 | 63.7 | 44.8 | 41.7 | – | > 100 | > 100 | 86.8
7 | C[As+](C)(c1ccc(Br)c([N+](=O)[O-])c1)c1ccc(Br)c([N+](=O)[O-])c1.O=[N+]([O-])O | > 100 | > 100 | – | 34.1 | > 100 | > 100 | > 100 | > 100 | > 100 | 76.8
8 | CC1(C)N=C(N)N=C(N)N1c1cccc(Cl)c1 | > 100 | > 100 | > 100 | > 100 | > 100 | – | > 100 | > 100 | – | > 100
9 | COc1ccc2c(c1OC)C(=O)N1C2=Cc2c(cc3c(c2OC)OCO3)CC1N(C)C (stereo not given) | > 100 | > 100 | 80.1 | > 100 | > 100 | > 100 | > 100 | – | > 100 | > 100
10 | CCCCNC(=O)Cn1c2ccc(Br)cc2c2nc3ccccc3nc21 | > 100 | > 100 | – | – | – | > 100 | > 100 | > 100 | > 100 | > 100
11 | CC(C)(C)/C(O)=C\c1nc2cc(F)c(F)cc2[nH]c1=O | > 100 | 57 | > 100 | – | – | > 100 | > 100 | > 100 | > 100 | > 100
12 | CSc1nc(=O)c2nc(-c3cccs3)c(-c3cccs3)nc2n1C | > 100 | > 100 | > 100 | > 100 | 89.1 | > 100 | > 100 | > 100 | – | > 100
13 | CCOC(=O)c1csc(NC(=O)CCN2CCCC2)n1 | > 100 | > 100 | > 100 | – | – | > 100 | > 100 | > 100 | > 100 | > 100
14 | CNC(=S)N1CCN(C(C)=O)C1=S | > 100 | > 100 | > 100 | 43.2 | > 100 | > 100 | – | > 100 | 62 | > 100
15 | CN(C)CCCNC(=O)N/N=C/c1ccccc1 | – | – | > 100 | > 100 | > 100 | > 100 | – | > 100 | > 100 | > 100
16 | COc1cc(N=Nc2ccc(OC)c(S(=O)(=O)O)c2)c(C)cc1N=Nc1ccc(/C=C/c2ccc(N=[N+]([O-])c3ccc(/C=C/c4ccc(N=Nc5cc(C)c(N=Nc6ccc(OC)c(S(=O)(=O)O)c6)cc5OC)cc4S(=O)(=O)O)c(S(=O)(=O)O)c3)cc2S(=O)(=O)O)c(S(=O)(=O)O)c1 | > 100 | – | > 100 | > 100 | > 100 | > 100 | – | > 100 | > 100 | > 100
17 | CN1c2ccccc2C2=C(c3ccccc3)CC[C@@H](C(=O)N3C4CC5CC[C@@]4(CS3(=O)=O)C5(C)C)[C@@H]21 (stereo not given in full) | > 100 | > 100 | – | > 100 | > 100 | > 100 | > 100 | > 100 | > 100 | > 100
18 | N#CCCN(CCC#N)c1ccc(C(N=Nc2ccccc2)=Nc2ccc(F)cc2)cc1 | > 100 | > 100 | – | – | 69.8 | > 100 | > 100 | – | > 100 | > 100
19 | Cc1nc2c(=O)n(-c3ccccc3)c(=O)n(-c3ccccc3)c2o1 | > 100 | – | – | > 100 | > 100 | > 100 | > 100 | > 100 | > 100 | –
20 | CC(=O)Oc1ccc2c(-c3ccccc3)c(Oc3ccc(Cl)cc3)c(=O)oc2c1 | – | 27.4 | > 100 | 28.9 | 9.51 | 36.8 | 37.7 | 36.7 | 32.5 | 31.6
21 | O=C1c2cc3c(cc2CC12Cc1ccc4c(c1C2=O)CCC4)CCC3 (stereo not given) | – | > 100 | > 100 | > 100 | > 100 | > 100 | > 100 | > 100 | – | > 100
22 | Cc1c(C(=O)NNc2ccccc2)n2c(=S)[nH]nc2c2ccccc12 | > 100 | > 100 | > 100 | – | > 100 | > 100 | > 100 | > 100 | > 100 | > 100
23 | O=c1c2cc([N+](=O)[O-])ccc2oc2nc3n(c(=O)c12)CCCS3 | > 100 | > 100 | – | > 100 | > 100 | – | > 100 | – | > 100 | > 100
24 | O=c1c2ccc(Cl)cc2oc2c(CNc3ccc(S(=O)(=O)Nc4ncccn4)cc3)cccc12 | > 100 | – | > 100 | > 100 | > 100 | > 100 | > 100 | > 100 | > 100 | > 100
